ChEMBL document CHEMBL3352542, “Synthesis, biological evaluation and molecular modeling study of 2-(1,3,4-thiadiazolyl-thio and 4-methyl-thiazolyl-thio)-quinazolin-4-ones as a new class of DHFR inhibitors” (Bioorg Med Chem Lett, 2014)
Activity calls are given as the source filed them. The rule behind the calls is not given here.

How the values were obtained:
Candida albicans [1] = test: Antimicrobial activity against Candida albicans assessed as inhibition zone at 200 ug/disk after 24 hrs by disc-diffusion method; assay type: functional
[2] = Growth inhibition of human HCT116 cells at 10 uM after 48 hrs; assay type: functional; settings: HCT-116, 48 h, read-out: GI
[3] = Growth inhibition of human HOP92 cells at 10 uM after 48 hrs; assay type: functional; settings: HOP-92, 48 h, read-out: GI
[4] = Growth inhibition of human RPMI8226 cells at 10 uM after 48 hrs; assay type: functional; settings: RPMI-8226, 48 h, read-out: GI
[5] = Growth inhibition of human RXF393 cells at 10 uM after 48 hrs; assay type: functional; settings: RXF 393, 48 h, read-out: GI
CAKI-1 = test: Growth inhibition of human CAKI-1 cells at 10 uM after 48 hrs; assay type: functional; settings: CAKI-1, 48 h, read-out: GI
[6] = Growth inhibition of human NCI-ADR-RES cells at 10 uM after 48 hrs; assay type: functional; settings: read-out: GI
786-0 = test: Growth inhibition of human 786-0 cells at 10 uM after 48 hrs; assay type: functional; settings: 786-0, 48 h, read-out: GI
[7] = Growth inhibition of human SF295 cells at 10 uM after 48 hrs; assay type: functional; settings: SF-295, 48 h, read-out: GI
Bacillus subtilis [8] = test: Antimicrobial activity against Bacillus subtilis assessed as inhibition zone at 200 ug/disk after 24 hrs by disc-diffusion method; assay type: functional
U-251 = test: Growth inhibition of human U251 cells at 10 uM after 48 hrs; assay type: functional; settings: U-251, 48 h, read-out: GI
[9] = Growth inhibition of human OVCAR8 cells at 10 uM after 48 hrs; assay type: functional; settings: OVCAR-8, 48 h, read-out: GI
K562 = test: Growth inhibition of human K562 cells at 10 uM after 48 hrs; assay type: functional; settings: K562, 48 h, read-out: GI
SNB-19 = test: Growth inhibition of human SNB19 cells at 10 uM after 48 hrs; assay type: functional; settings: SNB-19, 48 h, read-out: GI
SK-MEL-5 = test: Growth inhibition of human SK-MEL-5 cells at 10 uM after 48 hrs; assay type: functional; settings: SK-MEL-5, 48 h, read-out: GI
[10] = Growth inhibition of human BT549 cells at 10 uM after 48 hrs; assay type: functional; settings: BT-549, 48 h, read-out: GI
A549 = test: Growth inhibition of human A549 cells at 10 uM after 48 hrs; assay type: functional; settings: A549, 48 h, read-out: GI
Escherichia coli [11] = test: Antimicrobial activity against Escherichia coli assessed as inhibition zone at 200 ug/disk after 24 hrs by disc-diffusion method; assay type: functional
KM12 = test: Growth inhibition of human KM12 cells at 10 uM after 48 hrs; assay type: functional; settings: KM12, 48 h, read-out: GI
[12] = Growth inhibition of human UACC62 cells at 10 uM after 48 hrs; assay type: functional; settings: UACC-62, 48 h, read-out: GI
[13] = Growth inhibition of human OVCAR4 cells at 10 uM after 48 hrs; assay type: functional; settings: OVCAR-4, 48 h, read-out: GI
MDA-MB-231 = test: Growth inhibition of human MDA-MB-231 cells at 10 uM after 48 hrs; assay type: functional; settings: MDA-MB-231, 48 h, read-out: GI
A498 = test: Growth inhibition of human A498 cells at 10 uM after 48 hrs; assay type: functional; settings: A498, 48 h, read-out: GI
SF-268 = test: Growth inhibition of human SF268 cells at 10 uM after 48 hrs; assay type: functional; settings: SF-268, 48 h, read-out: GI
[14] = Growth inhibition of human PC3 cells at 10 uM after 48 hrs; assay type: functional; settings: PC-3, 48 h, read-out: GI
Dihydrofolate reductase = biological target: T1, Dihydrofolate reductase (Bos taurus, UniProt P00376); test: Inhibition of bovine liver DHFR
T1 sequence (P00376 whole entry): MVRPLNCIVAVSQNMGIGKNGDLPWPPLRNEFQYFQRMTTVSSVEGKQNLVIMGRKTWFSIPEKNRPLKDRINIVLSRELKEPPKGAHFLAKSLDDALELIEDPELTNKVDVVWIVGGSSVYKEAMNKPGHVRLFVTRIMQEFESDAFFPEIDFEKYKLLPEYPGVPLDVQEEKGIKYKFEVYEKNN

[15] = Growth inhibition of human LOXIMVI cells at 10 uM after 48 hrs; assay type: functional; settings: LOX IMVI, read-out: GI
Pseudomonas aeruginosa [16] = test: Antimicrobial activity against Pseudomonas aeruginosa assessed as inhibition zone at 200 ug/disk after 24 hrs by disc-diffusion method; assay type: functional
Staphylococcus aureus [17] = test: Antimicrobial activity against Staphylococcus aureus assessed as inhibition zone at 200 ug/disk after 24 hrs by disc-diffusion method; assay type: functional
[18] = Growth inhibition of human HCT15 cells at 10 uM after 48 hrs; assay type: functional; settings: HCT-15, 48 h, read-out: GI
[19] = Growth inhibition of human OVCAR5 cells at 10 uM after 48 hrs; assay type: functional; settings: OVCAR-5, 48 h, read-out: GI
SNB-75 = test: Growth inhibition of human SNB75 cells at 10 uM after 48 hrs; assay type: functional; settings: SNB-75, 48 h, read-out: GI
[20] = Growth inhibition of human UO31 cells at 10 uM after 48 hrs; assay type: functional; settings: UO-31, 48 h, read-out: GI
Staphylococcus aureus [21] = test: Antimicrobial activity against Staphylococcus aureus assessed as inhibition of visible growth after 24 hrs by disc-diffusion method; assay type: functional, organism-based
Candida albicans [22] = test: Antimicrobial activity against Candida albicans assessed as inhibition of visible growth after 24 hrs by disc-diffusion method; assay type: functional, organism-based
Bacillus subtilis [23] = test: Antimicrobial activity against Bacillus subtilis assessed as inhibition of visible growth after 24 hrs by disc-diffusion method; assay type: functional, organism-based
Pseudomonas aeruginosa [24] = test: Antimicrobial activity against Pseudomonas aeruginosa assessed as inhibition of visible growth after 24 hrs by disc-diffusion method; assay type: functional, organism-based
Escherichia coli [25] = test: Antimicrobial activity against Escherichia coli assessed as inhibition of visible growth after 24 hrs by disc-diffusion method; assay type: functional, organism-based

For `COc1ccc(-n2c(Sc3sc(N)nc3C)nc3ccc(C)cc3c2=O)cc1`, the zone of inhibition at 200 µg/disc (Candida albicans [1]; read-out: IZ) was 8 mm, the inhibition of growth at 10 µM [2] was 19.1% and the inhibition of growth at 10 µM [3] was 42.3%. The inhibition of growth at 10 µM [4] was 16.2%, the inhibition of growth at 10 µM [5] was 28% and the inhibition of growth at 10 µM (CAKI-1) was 11.5%. It also gave an inhibition of growth at 10 µM [6] of 11.3%, an inhibition of growth at 10 µM (786-0) of 12% and an inhibition of growth at 10 µM [7] of 10.6%. The zone of inhibition at 200 µg/disc (Bacillus subtilis [8]; read-out: IZ) was 8 mm, the inhibition of growth at 10 µM (U-251) was 15.7% and the inhibition of growth at 10 µM [9] was 13.4%. It also gave an inhibition of growth at 10 µM (K562) of 13%, an inhibition of growth at 10 µM (SNB-19) of 15.5% and an inhibition of growth at 10 µM (SK-MEL-5) of 15.7%. The inhibition of growth at 10 µM [10] was 20.6%, the inhibition of growth at 10 µM (A549) was 15.6% and the zone of inhibition at 200 µg/disc (Escherichia coli [11]; read-out: IZ) was 8 mm. It also gave an inhibition of growth at 10 µM (KM12) of 19.4%, an inhibition of growth at 10 µM [12] of 15.4% and an inhibition of growth at 10 µM [13] of 12.9%. For the same molecule, the inhibition of growth at 10 µM (MDA-MB-231) was 25%, the inhibition of growth at 10 µM (A498) was 24.6% and the inhibition of growth at 10 µM (SF-268) was 10.6%. The inhibition of growth at 10 µM [14] was 15.9%, the IC50 (Dihydrofolate reductase) was 7 µM and the inhibition of growth at 10 µM [15] was 11%. It also gave a zone of inhibition at 200 µg/disc (Pseudomonas aeruginosa [16]; read-out: IZ) of 8 mm, a zone of inhibition at 200 µg/disc (Staphylococcus aureus [17]; read-out: IZ) of 8 mm and an inhibition of growth at 10 µM [18] of 25.3%. The inhibition of growth at 10 µM [19] was 17.9%, the inhibition of growth at 10 µM (SNB-75) was 11.9% and the inhibition of growth at 10 µM [20] was 26.2%.

In the case of GENTAMICIN, the inhibition zone (IZ) (Candida albicans [1]) is reported as 19 mm, the Activity (Staphylococcus aureus [21]) is reported as “Active” and the Activity (Candida albicans [22]) is reported as “Active”. For the same molecule, the Activity (Bacillus subtilis [23]) was “Active”, the inhibition zone (IZ) (Bacillus subtilis [8]) was 25 mm and the inhibition zone (IZ) (Escherichia coli [11]) was 18 mm. For the same molecule, the inhibition zone (IZ) (Pseudomonas aeruginosa [16]) was 21 mm, the inhibition zone (IZ) (Staphylococcus aureus [17]) was 27 mm and the Activity (Pseudomonas aeruginosa [24]) was “Active”. For the same molecule, the Activity (Escherichia coli [25]) was “Active”.
